# Tests used:
# MDA-MB-435 [1] = experiment: Cytotoxicity against human MDA-MB-435 cells assessed as growth inhibition at 10 uM after 48 hrs by SRB assay; type: functional; settings: MDA-MB-435, 48 h, read-out: GI
# 786-0 [2] = experiment: Cytotoxicity against human 786-0 cells assessed as growth level at 10 uM after 48 hrs by SRB assay; type: functional
# SK-MEL-5 = experiment: Cytotoxicity against human SK-MEL-5 cells assessed as growth inhibition at 10 uM after 48 hrs by SRB assay; type: functional; settings: SK-MEL-5, 48 h, read-out: GI
# [3] = Cytotoxicity against human LOXIMVI cells assessed as growth level at 10 uM after 48 hrs by SRB assay; type: functional, LOX IMVI
# 786-0 [4] = experiment: Cytotoxicity against human 786-0 cells assessed as growth inhibition at 10 uM after 48 hrs by SRB assay; type: functional; settings: 786-0, 48 h, read-out: GI
# [5] = Cytotoxicity against human SKOV3 cells assessed as growth inhibition at 10 uM after 48 hrs by SRB assay; type: functional; settings: SK-OV-3, 48 h, read-out: GI
# EKVX = experiment: Cytotoxicity against human EKVX cells assessed as growth inhibition at 10 uM after 48 hrs by SRB assay; type: functional; settings: read-out: GI
# [6] = Cytotoxicity against human HCT116 cells assessed as growth level at 10 uM after 48 hrs by SRB assay; type: functional, HCT-116
# [7] = Cytotoxicity against human PC3 cells assessed as growth level at 10 uM after 48 hrs by SRB assay; type: functional, PC-3
# KM12 = experiment: Cytotoxicity against human KM12 cells assessed as growth inhibition at 10 uM after 48 hrs by SRB assay; type: functional; settings: KM12, 48 h, read-out: GI
# [8] = Cytotoxicity against human DU145 cells assessed as growth inhibition at 10 uM after 48 hrs by SRB assay; type: functional; settings: DU-145, 48 h, read-out: GI
# HT-29 = experiment: Cytotoxicity against human HT-29 cells assessed as growth level at 10 uM after 48 hrs by SRB assay; type: functional
# M14 = experiment: Cytotoxicity against human M14 cells assessed as growth level at 10 uM after 48 hrs by SRB assay; type: functional
# [9] = Cytotoxicity against human DU145 cells assessed as growth level at 10 uM after 48 hrs by SRB assay; type: functional, DU-145
# [10] = Cytotoxicity against human IGROV1 cells assessed as growth level at 10 uM after 48 hrs by SRB assay; type: functional, IGROV-1
# [11] = Cytotoxicity against human SF268 cells assessed as growth inhibition at 10 uM after 48 hrs by SRB assay; type: functional; settings: SF-268, 48 h, read-out: GI
# NCI-H522 = experiment: Cytotoxicity against human NCI-H522 cells assessed as growth level at 10 uM after 48 hrs by SRB assay; type: functional
# A549 = experiment: Cytotoxicity against human A549 cells assessed as growth inhibition at 10 uM after 48 hrs by SRB assay; type: functional; settings: A549, 48 h, read-out: GI
# [12] = Cytotoxicity against human Caki1 cells assessed as growth inhibition at 10 uM after 48 hrs by SRB assay; type: functional; settings: CAKI-1, 48 h, read-out: GI
# [13] = Cytotoxicity against human OVCAR3 cells assessed as growth level at 10 uM after 48 hrs by SRB assay; type: functional, OVCAR-3
# SK-MEL-28 = experiment: Cytotoxicity against human SK-MEL-28 cells assessed as growth inhibition at 10 uM after 48 hrs by SRB assay; type: functional; settings: SK-MEL-28, 48 h, read-out: GI
# [14] = Cytotoxicity against human SNB19 cells assessed as growth inhibition at 10 uM after 48 hrs by SRB assay; type: functional; settings: SNB-19, 48 h, read-out: GI
# K562 = experiment: Cytotoxicity against human K562 cells assessed as growth inhibition at 10 uM after 48 hrs by SRB assay; type: functional; settings: K562, 48 h, read-out: GI
# [15] = Cytotoxicity against human SF295 cells assessed as growth level at 10 uM after 48 hrs by SRB assay; type: functional, SF-295
# [16] = Cytotoxicity against human COLO205 cells assessed as growth inhibition at 10 uM after 48 hrs by SRB assay; type: functional; settings: COLO 205, 48 h, read-out: GI
# [17] = Cytotoxicity against human SF295 cells assessed as growth inhibition at 10 uM after 48 hrs by SRB assay; type: functional; settings: SF-295, 48 h, read-out: GI
# U-251 [18] = experiment: Cytotoxicity against human U251 cells assessed as growth level at 10 uM after 48 hrs by SRB assay; type: functional
# [19] = Cytotoxicity against human HCC2998 cells assessed as growth level at 10 uM after 48 hrs by SRB assay; type: functional, HCC 2998
# NCI-H23 = experiment: Cytotoxicity against human NCI-H23 cells assessed as growth level at 10 uM after 48 hrs by SRB assay; type: functional
# MDA-MB-435 [20] = experiment: Cytotoxicity against human MDA-MB-435 cells assessed as growth level at 10 uM after 48 hrs by SRB assay; type: functional
# [21] = Cytotoxicity against human HOP92 cells assessed as growth level at 10 uM after 48 hrs by SRB assay; type: functional, HOP-92
# [22] = Cytotoxicity against human SW620 cells assessed as growth inhibition at 10 uM after 48 hrs by SRB assay; type: functional; settings: SW-620, 48 h, read-out: GI
# SR = experiment: Cytotoxicity against human SR cells assessed as growth level at 10 uM after 48 hrs by SRB assay; type: functional
# U-251 [23] = experiment: Cytotoxicity against human U251 cells assessed as growth inhibition at 10 uM after 48 hrs by SRB assay; type: functional; settings: U-251, 48 h, read-out: GI
# [24] = Cytotoxicity against human OVCAR4 cells assessed as growth inhibition at 10 uM after 48 hrs by SRB assay; type: functional; settings: OVCAR-4, 48 h, read-out: GI
# [25] = Cytotoxicity against human Hs578T cells assessed as growth level at 10 uM after 48 hrs by SRB assay; type: functional, Hs-578T
# ACHN = experiment: Cytotoxicity against human ACHN cells assessed as growth level at 10 uM after 48 hrs by SRB assay; type: functional
# [26] = Cytotoxicity against human SNB75 cells assessed as growth level at 10 uM after 48 hrs by SRB assay; type: functional, SNB-75
# [27] = Cytotoxicity against human OVCAR3 cells assessed as growth inhibition at 10 uM after 48 hrs by SRB assay; type: functional; settings: OVCAR-3, 48 h, read-out: GI
# [28] = Cytotoxicity against human HCC2998 cells assessed as growth inhibition at 10 uM after 48 hrs by SRB assay; type: functional; settings: HCC 2998, 48 h, read-out: GI
# [29] = Cytotoxicity against human COLO205 cells assessed as growth level at 10 uM after 48 hrs by SRB assay; type: functional, COLO 205
# MCF7 = experiment: Cytotoxicity against human MCF7 cells assessed as growth inhibition at 10 uM after 48 hrs by SRB assay; type: functional; settings: MCF7, 48 h, read-out: GI
# [30] = Cytotoxicity against human Caki1 cells assessed as growth level at 10 uM after 48 hrs by SRB assay; type: functional, CAKI-1
# [31] = Cytotoxicity against human OVCAR4 cells assessed as growth level at 10 uM after 48 hrs by SRB assay; type: functional, OVCAR-4
structure (smiles),measurement,setting,value
C=C1CC[C@@H]2[C@](C)(COC(C)=O)[C@H](OC(C)=O)CC[C@@]2(C)[C@@H]1CC(NCCCC)C1=CCOC1=O (mixture of isomers),inhibition of growth at 10 µM,MDA-MB-435 [1],11.4%
same,Activity,786-0 [2],96.07%
same,inhibition of growth at 10 µM,SK-MEL-5,24%
same,Activity,[3],90.39%
same,inhibition of growth at 10 µM,786-0 [4],3.93%
same,inhibition of growth at 10 µM,[5],7.58%
same,inhibition of growth at 10 µM,EKVX,28.6%
same,Activity,[6],80.22%
same,Activity,[7],51.19%
same,inhibition of growth at 10 µM,KM12,7.21%
same,inhibition of growth at 10 µM,[8],0.82%
same,Activity,HT-29,82.56%
same,Activity,M14,92.75%
same,Activity,[9],99.18%
same,Activity,[10],80.01%
same,inhibition of growth at 10 µM,[11],23%
same,Activity,NCI-H522,79.13%
same,inhibition of growth at 10 µM,A549,18.8%
same,inhibition of growth at 10 µM,[12],9.05%
same,Activity,[13],91.12%
same,inhibition of growth at 10 µM,SK-MEL-28,1.91%
same,inhibition of growth at 10 µM,[14],12.7%
same,inhibition of growth at 10 µM,K562,30.5%
same,Activity,[15],94.28%
same,inhibition of growth at 10 µM,[16],17.9%
same,inhibition of growth at 10 µM,[17],5.72%
same,Activity,U-251 [18],86.76%
same,Activity,[19],92.1%
same,Activity,NCI-H23,89.71%
same,Activity,MDA-MB-435 [20],88.61%
same,Activity,[21],53.32%
same,inhibition of growth at 10 µM,[22],4.99%
same,Activity,SR,48.54%
same,inhibition of growth at 10 µM,U-251 [23],13.2%
same,inhibition of growth at 10 µM,[24],14.3%
same,Activity,[25],97.68%
same,Activity,ACHN,99.42%
same,Activity,[26],77.87%
same,inhibition of growth at 10 µM,[27],8.88%
same,inhibition of growth at 10 µM,[28],7.9%
same,Activity,[29],82.08%
same,inhibition of growth at 10 µM,MCF7,17.1%
same,Activity,[30],90.95%
same,Activity,[31],85.7%
